Test results taken from PubChem BioAssay (NCI).
“And” between values parts separate entries of the source, which are not always exact repeats. Equal values may be shown once.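 Each compound was tested at five concentrations against cells in 96-well plates for 48 hours. Abbreviation: GI50, concentration required for 50% inhibition of growth. TGI: total growth inhibition.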

What was measured:
Assay in all cases: DTP human tumour cell line panel, 48 h
UACC-257 melanoma = tested on: UACC-257 melanoma
A549 NSCLC = tested on: A549 NSCLC
OVCAR-5 ovarian = tested on: OVCAR-5 ovarian
NCI-H522 lung = tested on: NCI-H522 lung
SW-620 colon = tested on: SW-620 colon
MCF7 breast = tested on: MCF7 breast
OVCAR-4 ovarian = tested on: OVCAR-4 ovarian
UACC-62 melanoma = tested on: UACC-62 melanoma
ACHN renal = tested on: ACHN renal
RXF 393 renal = tested on: RXF 393 renal

SMILES	GI50 (UACC-257 melanoma)	TGI (UACC-257 melanoma)	GI50 (A549 NSCLC)	TGI (A549 NSCLC)	GI50 (OVCAR-5 ovarian)	TGI (OVCAR-5 ovarian)	GI50 (NCI-H522 lung)	TGI (NCI-H522 lung)	GI50 (SW-620 colon)	TGI (SW-620 colon)	GI50 (MCF7 breast)	TGI (MCF7 breast)	GI50 (OVCAR-4 ovarian)	TGI (OVCAR-4 ovarian)	GI50 (UACC-62 melanoma)	TGI (UACC-62 melanoma)	GI50 (ACHN renal)	TGI (ACHN renal)	GI50 (RXF 393 renal)	TGI (RXF 393 renal)
O=c1/c(=C\c2ccc(Br)cc2)sc2n1C(c1ccc(Br)cc1)C1=C(N=2)c2ccc3ccccc3c2OCC1 (centres undefined)	> 100 µM	> 100 µM	> 100000 nM	> 100 µM	> 100000 nM	> 100 µM	> 100000 nM	> 100 µM	> 100000 nM	> 100 µM	> 100000 nM	> 100 µM	> 100000 nM	> 100 µM	> 100000 nM	> 100 µM	> 100000 nM	> 100 µM	> 100000 nM	> 100 µM
CCCCOC(=O)c1c(C)[nH]c(/C=C2\N=C(c3ccc[nH]3)C=C2OC)c1C	0.488 µM	3.35 µM	205 nM	15.2 µM	337 nM	2.47 µM	174 nM	1.68 µM	56.9 nM	1.44 µM	162 nM	2.65 µM	177 nM	5.04 µM	127 nM	0.339 µM	146 nM	1.3 µM	537 nM	3.07 µM
CCC(C)C1NC(=O)C(NC(=O)C(CC(C)C)N(C)C(=O)[C@@H]2CC(O)CN2C(=O)[C@H](C)O)C(C)OC(=O)[C@H](Cc2ccc(OC)cc2)N(C)C(=O)[C@@H]2CCCN2C(=O)[C@H](CC(C)C)NC(=O)C(C)C(=O)[C@H](C(C)C)OC(=O)CC1O (some centres undefined)	0.0768 µM	1.94 µM and 1.85 µM	27.7 nM	1.91 µM	417 nM	2.53 µM and 2.14 µM	20.8 nM	0.902 µM and 0.234 µM	58.1 nM	2.3 µM and 0.919 µM	< 10 nM	–	24.6 nM	1.14 µM and 1.17 µM	< 10 nM	0.361 µM and 0.0495 µM	131 nM	8.74 µM and 5.22 µM	< 10 nM	0.481 µM and 0.112 µM
COc1ncc(-c2ccc3nccc(C#CCCCCC(=O)NO)c3c2)cc1NS(=O)(=O)c1ccc(F)cc1F	0.198 µM	1.44 µM	104 nM	3.17 µM	63.4 nM	8.2 µM	92.9 nM	2.31 µM	158 nM	3.9 µM	18.6 nM	4.45 µM	1720 nM	14.1 µM	< 19.5 nM	–	111 nM	12.3 µM	46.6 nM	0.75 µM
O=C(NN1C(=O)CSC1c1c(Cl)cccc1Cl)C(O)c1ccccc1 (centres undefined)	31 µM	94.5 µM	21200 nM	81.6 µM	> 100000 nM	> 100 µM	25700 nM	> 100 µM	71800 nM	> 100 µM	44200 nM	> 100 µM	29100 nM	> 100 µM	7150 nM	43.5 µM	28400 nM	> 100 µM	29300 nM	> 100 µM
CN(C)CCCCNc1ccc(NCCCCN(C)C)c2c1C(=O)c1c(O)ccc(O)c1C2=O	18.4 µM	32.3 µM	1570 nM	2.94 µM	1660 nM	3.14 µM	1770 nM	3.58 µM	1510 nM	2.83 µM	1590 nM	2.99 µM	1420 nM	2.76 µM	15300 nM	29.1 µM	1610 nM	2.96 µM	1750 nM	11.2 µM
COc1cc(C(=O)NN=C2c3ccccc3-c3ccccc32)cc(OC)c1OC	3.33 µM	34.2 µM	3260 nM	> 100 µM	7950 nM	> 100 µM	1770 nM	5.8 µM	2530 nM	> 100 µM	2280 nM	> 100 µM	17500 nM	> 100 µM	3090 nM	24.8 µM	4210 nM	24.2 µM	2760 nM	29.3 µM
Nc1nc(N)c2c(n1)CCC(S(=O)(=O)c1ccc3ccccc3c1)C2 (centres undefined)	–	> 100 µM	–	> 100 µM	–	> 100 µM	2940 nM	34.5 µM	–	> 100 µM	–	> 100 µM	4310 nM	> 100 µM	678 nM	> 100 µM	–	> 100 µM	2530 nM	57.8 µM
CCc1ncc(CO)n1Cc1cccc2ccccc12	–	> 100 µM	–	> 100 µM	–	> 100 µM	–	> 100 µM	–	> 100 µM	–	> 100 µM	–	> 100 µM	–	> 100 µM	–	> 100 µM	–	> 100 µM
O=C(CN1CCN(C(=O)c2ccco2)CC1)Nc1ccc(Cl)cc1C(=O)c1ccccc1Cl	12.5 µM	31.8 µM	5610 nM	39.4 µM	24000 nM	63 µM	4160 nM	27.4 µM	12000 nM	30.6 µM	5310 nM	21.7 µM	5910 nM	31.5 µM	8850 nM	23.4 µM	10300 nM	43.7 µM	3850 nM	18 µM
O=C(CCN1CCCN(c2cnc3ccccc3n2)CC1)c1csc2ccccc12	26.1 µM	63.2 µM	> 100000 nM	> 100 µM	28900 nM	> 100 µM	17300 nM	31.7 µM	17400 nM	33.3 µM	3200 nM	16.4 µM	18500 nM	35.1 µM	19700 nM	34.2 µM	17900 nM	31.8 µM	19400 nM	37.5 µM
CC1[C@@H]2CC=C3[C@H]4CCC5Cc6nc7c(nc6C[C@@]5(C)C4CC(=O)[C@]32CO[C@]12OC(C)(C)CC2O)CC1CC[C@@H]2C3=C[C@H]4O[C@@]5(O[C@@](C)(CO)C[C@@H]5O)C(C)[C@@]4(O)[C@]3(C)[C@@H](O)CC2[C@]1(C)C7 (some centres undefined)	0.00426 µM	0.0211 µM	0.51 nM and 1.33 nM	0.164 µM and 0.47 µM	13 nM and 4.25 nM	0.139 µM and 0.0237 µM	13.1 nM	–	0.982 nM and 2.04 nM	0.0262 µM and 0.0526 µM	0.482 nM and 1.42 nM	–	39 nM and 98.5 nM	0.921 µM and > 3.65 µM	0.316 nM and 0.574 nM	0.00098 µM and 0.0062 µM	8.05 nM	0.846 µM	0.365 nM	0.000428 µM and 0.00414 µM
COC(=O)c1c2c(c(C)[n+]([O-])c1C)C(=O)C(NCc1ccc(O)cc1)=CC2=O	0.556 µM	1.97 µM	1930 nM	4.6 µM	1770 nM	3.36 µM	1430 nM	3.49 µM	934 nM	2.72 µM	416 nM	2 µM	1030 nM	2.23 µM	1360 nM	2.97 µM	1700 nM	3.22 µM	1500 nM	2.98 µM
O=C(Nc1cccc(-n2cc(-c3ccncc3)c(-c3ccc(Cl)c(O)c3)n2)c1)Nc1ccc(Cl)c(Cl)c1	0.93 µM	3.16 µM	1010 nM	> 32.5 µM	2400 nM	> 32.5 µM	1190 nM	10.6 µM	1460 nM	> 32.5 µM	1060 nM	> 32.5 µM	1690 nM	> 32.5 µM	1110 nM	5.21 µM	1040 nM	> 32.5 µM	1000 nM	6.4 µM
CCOc1ccc2c(c1)C(=O)c1c-2n(CCCN=[N+]=[N-])c(=O)c2cc([N+](=O)[O-])ccc12	96.4 µM	> 100 µM	10200 nM	> 100 µM	6070 nM	> 100 µM	3580 nM	25.8 µM	3420 nM	> 100 µM	26.1 nM	6.4 µM	18900 nM	> 100 µM	2890 nM	24.1 µM	2020 nM	9.32 µM	28000 nM	> 100 µM
CN(C)c1ccc(/C=c2/c3cc(O)ccc3n3c2cc(-c2ccccc2)[n+]3C)cc1	–	3.07 µM	–	> 100 µM	6040 nM	> 100 µM	–	1.75 µM	1770 nM	–	1180 nM	> 100 µM	2830 nM	> 100 µM	> 100000 nM	–	4780 nM	> 100 µM	–	3.54 µM
Cc1[nH]nc(C(=O)N/N=C/c2ccccc2Cl)c1N=NN(C)C	–	> 100 µM	–	> 100 µM	–	> 100 µM	–	> 100 µM	–	> 100 µM	–	> 100 µM	–	> 100 µM	–	> 100 µM	–	> 100 µM	–	> 100 µM
NC1(C(=O)N[C@@H](CCO)c2ccc(Cl)cc2)CCN(c2ncnc3[nH]ccc23)CC1	3.8 µM and 7.39 µM	> 100 µM	> 3150 nM and 12000 nM	> 92.1 µM	> 2220 nM and 9440 nM	> 100 µM	> 2050 nM and 17100 nM	> 90.3 µM	> 3500 nM and 24800 nM	> 100 µM	632 nM and 1720 nM	> 100 µM	> 3080 nM and 33700 nM	> 100 µM	608 nM and 1850 nM	4 µM and 23.7 µM	> 2010 nM and 9600 nM	> 100 µM	130 nM and 354 nM	0.69 µM and 5.83 µM
